Results: patent US8394434B2, “SCF extract containing cardiac glycoside” (Phoenix Biotechnology, Inc., priority 2005, dated 2013)

Key:
[1] = tested on: ERK (pERK) in Panc-1 cells; test: Expression of pERK, gel electropherogram (FIG. 3); type: cell-based, human
Source text: (§1) FIG. 3 depicts a photograph of the relevant bands of a gel electropherogram obtained as part of an assay comparing the activity of oleandrin, hot-water extract and the SCF extract of the invention toward inhibition of phosphoryation (active form) of Akt and augmentation of (phosphorylation) of Erk.
(§2) Phosphorylation of the serine/threonine kinase known as Akt provides tumor cells with enhanced survival capability. Increased Akt activity promotes survival of tumor cells that would normally undergo death by apoptosis. In addition, pAkt is involved in cell proliferation, angiogenesis, genome instability and cell invasion and migration (Yoeli-Lerner M and Toker A. Akt/PKB Signaling in Cancer. Cell Cycle 5:603-605, 2006). All of these responses contribute to initiation and progression. Further evidence of the importance of Akt signaling in cancer comes from studies which have detected over-expression and hyper-activation (through phosphorylation) of Akt in a wide range of human tumors, and this is often linked with poor prognosis. The relative activity of the hot-water and SCF extract on critical cell signaling proteins in human pancreatic cancer (Panc-1) cells were also compared. […] The relative ability of the supercritical CO2 extract to inhibit pAkt expression is much greater than that of oleandrin or the hot water extract of Nerium oleander. […]

Human melanoma BRO cells = test: Cytotoxicity comparison, crystal violet staining (Example 10); type: cell-based; conditions: presented as μM oleandrin concentration in the extract, 72 hr incubation
Experimental: (§3) The extracts also differ in their relative performance as determined by efficacy against several tumor cell lines (Example 10). Oleandrin-containing samples were prepared to contain the same amount of oleandrin although the concentration of oleandrin in each sample varied due to the differences in the concentration of in the extracts. The data obtained are summarized in the table below and in FIGS. 4 and 5.
(§4) The cytotoxic potential of both extracts are compared directly with that of oleandrin. The samples contained the same amounts of oleandrin even though their concentration of oleandrin differed due to the concentration of oleandrin present in the extracts.
(§5) BRO (human melanoma) and Panc-1 (human pancreatic cancer) cells (8×10^3/well) were plated in a 96 well plate and allowed to attach overnight. Drug or extracts were then added to the cells. After 72 hr of incubation, relative cell proliferation (relative to control untreated cells) was assessed by crystal violet staining method.

[2] = tested on: Human pancreatic cancer PANC-1 cells; test: as above; type: cell-based; conditions: presented as μM oleandrin concentration in the extract, 72 hr incubation
Experimental: as §3, §4, §5

[3] = tested on: Akt (pAkt) in Panc-1 cells; test: Phosphorylation of Akt, gel electropherogram (FIG. 3); type: cell-based, human
Source text: as §1, §2

PANC-1 cells = test: Cell cycle analysis by flow cytometry; type: cell-based, human; conditions: 25 nM oleandrin or extract equivalent to 25 nM oleandrin, 24 hrs
Experimental: The effect of oleandrin, the hot-water and SCF extract upon cell cycle changes of PANC-1 cells treated therewith was evaluated over a 24-hour period. Panc-1 cells were treated with 25 nM of oleandrin alone or the amount of hot water extract or supercritical CO2 extract of oleander which was equivalent to 25 nM of oleandrin for 24 hrs. Cell cycle analysis was carried out by flow cytometry. Cell division consists of two consecutive processes, mainly characterized by DNA replication and then segregation of replicated chromosomes into two separate cells. Replication of DNA occurs in a specific part of the interphase called S phase. S phase is preceded by a gap called G1 during which the cell is preparing for DNA synthesis. This is […] then followed by a gap called G2 during which the cell prepares for mitosis. Then this is followed with the mitosis phase, or M phase. G1, S, G2 and M phases are the traditional subdivisions of the standard cell cycle. Cells which are in a G2/M block such as that induced by the supercritical CO2 extract cannot undergo division.
The data are expressed as the relative percentage of cells in a given phase of the cell cycle.

## CO[C@H]1C[C@H](O[C@H]2CC[C@@]3(C)[C@H](CC[C@@H]4[C@@H]3CC[C@]3(C)[C@@H](C5=CC(=O)OC5)[C@@H](OC(C)=O)C[C@]43O)C2)O[C@@H](C)[C@@H]1O [Oleandrin, oleandrin]
[1]
  expression of pERK: dramatically increased
Human melanoma BRO cells
  IC50: 0.017 µM
[2]
  IC50: 0.01 µM
[3]
  inhibition of PI3 Kinase resulting in reduction of phosphorylation of Akt: reduction of phosphorylation of Akt
PANC-1 cells
  G1 phase, relative percentage of cells: 30.5%
  G2/M phase, relative percentage of cells: 26.2%
  S phase, relative percentage of cells: 43.3%
